Test results: patent publication US6013623A, “Use of heme-peptides to prevent or retard disease associated with oxidative stress” (The Trustees of Columbia University in the City of New York, priority 1997, dated 2000)
No end group written: not given here.

Tests used:
[1] = tested on: lens epithelial cell culture; conditions: range required for effective activity; cited from earlier work
[2] = Degradation of H2O2 by microperoxidase (ferroammonium sulfate/thiocyanate H2O2 assay); format: biochemical
Experimental: (FIG. 1A) Effect of cofactors on μPx-11 degradation of H2 O2. 300 μM hydrogen peroxide (H2 O2) was incubated with μPx-11 in 50 mM phosphate buffer, pH 7.0 at 25° C. in 1 ml. At indicated times, 50 μl aliquots were removed for H2 O2 assay as described in the Materials and Methods section. 50 mM phosphate buffer, pH 7.0 buffer+500 μM NADPH, buffer+1 mM ascorbate (Asc), buffer+3 μM (μPx-11), prior solution+500 μM NADPH, as the previous solution but with 1 mM Asc rather than NADPH. 20 μM μPx-11 in 50 mM phosphate buffer pH 7.0. The results represent the average±S.D. of 3 experiments in most cases.
(FIG. 1B) Stability of μPx-11 as measured by ability to degrade H2 O2. 300 μM H2 O2 in 2 ml of 50 mM phosphate buffer, pH. […] The levels of certain components (H2 O2, NADPH or Asc) were brought back to estimated starting concentrations based on prior experiments and the H2 O2 decay again measured. […]
(FIG. 1C) Concentration dependence of μPx-11 in the presence of Asc. […] The data is expressed as nmoles H2 O2 degraded per ml per minute per nmole μPx-11 in 1 ml. The initial H2 O2 degradation rate measured in the first minute is given. […]
H2 O2 was assayed by the method of Hildebrandt et al. (1978), as modified by Spector et al. (1993a) and is based on the oxidation of ferroammonium sulfate in the presence of potassium thiocyanate. […] Hydroxyl radical was determined as previously described (Spector et al., 1993a). […]

Row | effect of H2O2 on peroxidase ([2]; absence of Asc) | Molecule | toxicity [1] | ability to degrade H2O2 compared with μPx-11 ([2]; presence of 1 mM Asc)
1 |  | CN(C)Cc1ccccc1[Se][Se]c1ccccc1CN(C)C [2,2'diselenobis (N,N dimethylamino)methyl benzene] | toxic in the μM (micromolar) range | 
2 |  | O=c1c2ccccc2[se]n1-c1ccccc1 [Ebselen] | toxic in the μM (micromolar) range | 
3 | inactivated | μPx-8: heme-peptide with the cytochrome C peptide segment containing residue 14 to 21 (CAQCHTVE; cysteine pairing not given here; also: heme-peptide, heme attachment not placed; UniProt P00004 15-22, looked up, fragment) |  | more active than μPx-11
